{"source": "patent US20040006043A1", "about": "“Methods, pharmaceutical compositions and pharmaceutical kits for enhancing the therapeutic efficiency of cancer chemotherapeutic agents” (RAMOT UNIVERSITY AUTHORITY FOR APPLIED RESEARCH & …, priority 2002, published 2004)", "key": {"[1]": {"conditions": "Lithium 1 mM; cited from earlier work"}, "C26 cells": {"tested_on": "C26 cells", "test": "Survival of BALB/c mice inoculated with C26 tumor cells", "format": "in vivo", "conditions": "C26 cells in right-hind foot pad", "experimental": "BALB/c mice, female, 8 weeks old at the initiation of experiments were tested. Experiments were performed with 35 mice that were divided into 5 groups.\nMitomycin C (MMC), injection dose of 10 mg/Kg body.\nC26 cells (originating from mouse colon carcinoma) were grown in cell culture flask essentially as described above under the in vitro experiments. At day 0 of the experiment, the cells were harvested, washed several times with PBS and at the final wash with Hank's buffer, counted and immediately injected subcutaneously into the right-hind foot pad of the mice. The injected dose was 5×10^5 cells/30 μl.\nSaline and the chemotherapeutic formulations were administered on days 5, 12 and 19 of the experiment, by injection into the tail vein. All the injected volumes were 0.1 ml. Lithium, at 1 mM, was given in the drinking water continuously throughout the experiment, from the day of tumor inoculation.\n35 mice, inoculated with tumor cells, were divides into groups and each group received a different treatment, as described hereinabove and is presented in Table 2 above. The animal survival was monitored continuously, from the first day of tumor inoculation.\nFIG. 8 presents the animal survival, expressed in percentages of the total number of animals in the group."}, "C6 cells": {"tested_on": "C6 cells", "conditions": "doxorubicin efflux, absence of a chemosensitizer", "experimental": "Cells were grown in monolayers as described above. Several days prior to an experiment the cells (at a density in the range of 5×10^4-5×10^5 cells/ml) were seeded into 6 multiwell culture plates. The experiments were performed when the cells reached confluency.\nAt the end of the incubation the media was removed and the cells were incubated with “drug free media”, which consisted of either buffer alone, for cells loaded with drug only, or buffer that contained the chemosensitizer used at the same dose as in the incubation, for the cells loaded with the drug and the chemosensitizer. This replacement of the loading with the “drug free media” was performed in order to create the driving force for drug efflux from the cell into that external media. At designated periods (time points), the external media was collected and thereafter replaced by fresh “drug free media”, in order to maintain a unidirectional flux, from the cell out. The drug concentration was measured in each of the collected media, and in the cells at the end of the experiment."}}}
{"smiles": "[Li]", "note": "[Lithium]", "values": [{"measurement": "in vivo safety of the in vitro dose", "setting": "[1]", "value": "within the in vivo safe range"}]}
{"smiles": "CO[C@@]12[C@H](COC(N)=O)C3=C(C(=O)C(C)=C(N)C3=O)N1C[C@@H]1N[C@@H]12", "note": "[Free MMC, Mitomycin C]", "values": [{"measurement": "day on which all animals were dead", "setting": "C26 cells; MMC 10 mg/Kg i.v. on days 5, 12, 19", "value": 33, "unit": "days"}, {"measurement": "day on which animals started dying", "setting": "C26 cells; MMC 10 mg/Kg i.v. on days 5, 12, 19, Lithium 1 mM in drinking water where given", "value": 29, "unit": "days"}]}
{"smiles": "COc1cccc2c1C(=O)c1c(O)c3c(c(O)c1C2=O)C[C@@](O)(C(=O)CO)C[C@@H]3O[C@H]1C[C@H](N)[C@H](O)[C@H](C)O1", "note": "[F-DOX, doxorubicin]", "values": [{"measurement": "fraction of total intracellular drug load diffused out of the cell after 5 minutes", "setting": "C6 cells", "value": "about 30%"}, {"measurement": "time for complete depletion of the cell from the drug", "setting": "C6 cells", "value": "≤ 3", "unit": "h"}]}
